According to ChEMBL document CHEMBL1201862, “PubChem BioAssay data set” (2004):
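96-well plates; 48 h exposure; 5 concentrations. Endpoints by linear interpolation between flanking doses. Not reached: highest tested concentration assigned. At the GI50, growth is halved.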 Active and inactive are the calls of the source. Rule as the data show it: active = GI50 up to about 1.1 µM and inactive = higher.

Experiments:
Test in all cases: NCI tumour cell line growth inhibition, 48 h
DMS-114 = tested on: DMS-114
DMS-273 = tested on: DMS-273
LXFL 529 = tested on: LXFL 529
RXF 631 = tested on: RXF 631
SNB-78 = tested on: SNB-78
XF498 = tested on: XF498
M19-MEL = tested on: M19-MEL
HOP-18 = tested on: HOP-18
KM-20L2 = tested on: KM-20L2

| Structure (SMILES) | GI50 (DMS-114) | GI50 (DMS-273) | GI50 (LXFL 529) | GI50 (RXF 631) | GI50 (SNB-78) | GI50 (XF498) | GI50 (M19-MEL) | GI50 (HOP-18) | GI50 (KM-20L2) |
| --- | --- | --- | --- | --- | --- | --- | --- | --- | --- |
| COc1cc(Nc2nc3cc(C(F)(F)F)ccc3nc2-c2ccccc2)cc(OC)c1OC | > 100 µM (inactive) | 22.8 µM (inactive) | > 100 µM (inactive) | 61.8 µM (inactive) | 46.2 µM (inactive) | 32.5 µM (inactive) | – | – | – |
| CSC1CC2C(CC1(C)SC)C2(C)C (configuration not stated) | – | 45.4 µM (inactive) | > 100 µM (inactive) | – | 74.3 µM (inactive) | 19.7 µM (inactive) | 37.2 µM (inactive) | – | – |
| CCN1C(=O)/C(=C\c2coc3ccccc3c2=O)SC1=S | > 100 µM (inactive) | 59 µM (inactive) | > 100 µM (inactive) | – | 56.8 µM (inactive) | 40 µM (inactive) | > 100 µM (inactive) | 80.4 µM (inactive) | > 100 µM (inactive) |
| Sc1nnc(-c2ccccc2)n1/N=C\c1ccc(-c2ccc(Cl)cc2)o1 | – | – | > 100 µM (inactive) | – | > 100 µM (inactive) | – | > 100 µM (inactive) | – | > 100 µM (inactive) |
| NC(=O)/N=C1\NC(Cc2ccccc2)C(=O)N1Cc1ccccc1 (configuration not stated) | > 100 µM (inactive) | > 100 µM (inactive) | > 100 µM (inactive) | – | > 100 µM (inactive) | 35.6 µM (inactive) | > 100 µM (inactive) | – | > 100 µM (inactive) |
| CCCCCCCCCCCCCCCCc1c(C(=O)OC)[nH]c(=S)[nH]c1=O | – | > 50 µM (inactive) | > 50 µM (inactive) | > 50 µM (inactive) | > 50 µM (inactive) | > 50 µM (inactive) | > 50 µM (inactive) | > 50 µM (inactive) | > 50 µM (inactive) |
| CC(=O)OCC12CC(CC1OC(C)=O)c1ccccc12 (configuration not stated) | > 100 µM (inactive) | > 100 µM (inactive) | > 100 µM (inactive) | > 100 µM (inactive) | – | – | > 100 µM (inactive) | > 100 µM (inactive) | > 100 µM (inactive) |
| COc1ccc(/C(=C/n2ccnc2)C(O)c2ccc(OC)c(OC)c2)cc1OC (configuration not stated) | – | > 100 µM (inactive) | – | – | – | – | > 100 µM (inactive) | > 100 µM (inactive) | > 100 µM (inactive) |
| C#CCN(N=O)C(=O)NC(CCCNC(=O)OCc1ccccc1)C(=O)OCc1ccccc1 (configuration not stated) | 67.3 µM (inactive) | > 100 µM (inactive) | 72.9 µM (inactive) | – | > 100 µM (inactive) | 18 µM (inactive) | > 100 µM (inactive) | – | > 100 µM (inactive) |
| CN(C)CCC(CCN(C)C)=NO | > 100 µM (inactive) | > 100 µM (inactive) | > 100 µM (inactive) | > 100 µM (inactive) | > 100 µM (inactive) | – | > 100 µM (inactive) | > 100 µM (inactive) | > 100 µM (inactive) |
| CN(C)CC1CCCC/C1=N/OC(=O)c1ccc(Cl)c(Cl)c1 (configuration not stated) | > 100 µM (inactive) | > 100 µM (inactive) | > 100 µM (inactive) | > 100 µM (inactive) | – | – | > 100 µM (inactive) | > 100 µM (inactive) | > 100 µM (inactive) |
| COc1cc(-c2cc(=O)c3cc(C)c(C)c(C(=O)O)c3o2)cc(OC)c1OC | > 100 µM (inactive) | > 100 µM (inactive) | > 100 µM (inactive) | > 100 µM (inactive) | > 100 µM (inactive) | > 100 µM (inactive) | > 100 µM (inactive) | – | > 100 µM (inactive) |
| CC1=NC(C(C)C)C(=O)O1 (configuration not stated) | 24.6 µM (inactive) | 56 µM (inactive) | > 100 µM (inactive) | > 100 µM (inactive) | > 100 µM (inactive) | > 100 µM (inactive) | > 100 µM (inactive) | > 100 µM (inactive) | > 100 µM (inactive) |
| S=C1OC2CCCC[C@H]2O1 (some centres not stated) | > 100 µM (inactive) | > 100 µM (inactive) | > 100 µM (inactive) | > 100 µM (inactive) | > 100 µM (inactive) | > 100 µM (inactive) | > 100 µM (inactive) | > 100 µM (inactive) | > 100 µM (inactive) |
| Cc1ccc2ccc(-c3ccccc3)c3c2c1C(=O)c1ccccc1C3=O | > 100 µM (inactive) | 53.8 µM (inactive) | > 100 µM (inactive) | – | > 100 µM (inactive) | 15.8 µM (inactive) | 76.2 µM (inactive) | 54.6 µM (inactive) | > 100 µM (inactive) |
| Cc1c2ncccc2c(C)c2c1[nH]c1ccccc12 | – | 4.84 µM (inactive) | 11 µM (inactive) | – | 14.6 µM (inactive) | 12.8 µM (inactive) | 13.4 µM (inactive) | 14.2 µM (inactive) | 7.11 µM (inactive) |
| CNC(=O)NC(CCCCNC(=O)OCc1ccccc1)C(=O)OCc1ccccc1 (configuration not stated) | 28.1 µM (inactive) | 35.9 µM (inactive) | 33.9 µM (inactive) | – | 33.4 µM (inactive) | 15.2 µM (inactive) | 17 µM (inactive) | – | > 100 µM (inactive) |
| O=C(O)C(CS)Nc1c2ccccc2[n+]([O-])c2ccccc12 (configuration not stated) | > 100 µM (inactive) | > 100 µM (inactive) | 53.7 µM (inactive) | > 100 µM (inactive) | > 100 µM (inactive) | – | > 100 µM (inactive) | > 100 µM (inactive) | > 100 µM (inactive) |
| CCOC(=O)C(Cc1cn(S(=O)(=O)c2ccccc2)c2ccccc12)(NC(C)=O)C(=O)OCC | 23.9 µM (inactive) | 35 µM (inactive) | 27.7 µM (inactive) | – | – | 29.7 µM (inactive) | 40.7 µM (inactive) | – | 46.6 µM (inactive) |
| CN1C(c2ccccc2)CC(=O)C(N)C1c1ccccc1 (configuration not stated) | – | 23.4 µM (inactive) | 17.6 µM (inactive) | – | 23.7 µM (inactive) | 14.7 µM (inactive) | 22.7 µM (inactive) | 37.4 µM (inactive) | 34.8 µM (inactive) |
| C=C(C)CC(C(=O)O)c1ccc(C)cc1 (configuration not stated) | > 100 µM (inactive) | > 100 µM (inactive) | – | – | > 100 µM (inactive) | > 100 µM (inactive) | > 100 µM (inactive) | > 100 µM (inactive) | > 100 µM (inactive) |
| CC1C(c2ccccc2)=CCON1c1ccccc1 (configuration not stated) | > 100 µM (inactive) | – | > 100 µM (inactive) | – | > 100 µM (inactive) | > 100 µM (inactive) | > 100 µM (inactive) | – | > 100 µM (inactive) |
| O=C(O)c1ccccc1NS(=O)(=O)c1ccc(Cl)cc1 | > 100 µM (inactive) | > 100 µM (inactive) | > 100 µM (inactive) | – | > 100 µM (inactive) | > 100 µM (inactive) | > 100 µM (inactive) | > 100 µM (inactive) | > 100 µM (inactive) |
| CCCC(=O)c1c(NOC2OC(COC(C)=O)C(OC(C)=O)C(OC(C)=O)C2OC(C)=O)nc(OC)n(C)c1=O (configuration not stated) | > 100 µM (inactive) | > 100 µM (inactive) | > 100 µM (inactive) | – | > 100 µM (inactive) | > 100 µM (inactive) | > 100 µM (inactive) | – | > 100 µM (inactive) |
| CN(C)CC(=O)N1CCc2c([nH]c3ccccc23)C1c1cccnc1 (configuration not stated) | > 100 µM (inactive) | 0.0187 µM (active) | > 100 µM (inactive) | > 100 µM (inactive) | > 100 µM (inactive) | > 100 µM (inactive) | > 100 µM (inactive) | > 100 µM (inactive) | > 100 µM (inactive) |
